2 molecules from US20190374533A1, “COMPOUNDS AND METHODS FOR INHIBITING NHE-MEDIATED ANTIPORT IN THE TREATMENT OF DISORDERS ASSOCIATED WITH FLUID RETENTION OR SALT OVERLOAD AND GASTROINTESTINAL TRACT DISORDERS” (Ardelyx, Inc., priority 2008, published 2019) can be followed below.

Where a name gives a salt, the structure may show the parent alone.

In one assay the test system is fecal water content. Kind of assay: Pharmacodynamic model: effect of test compounds on fecal water content. In kind it is in vivo, rat. Particulars: female Sprague Dawley rats, 3 mg/kg oral, feces collected 16 hrs; for % Fecal water: mean of 6.
The target of another assay is T1, human NHE3 (Homo sapiens, UniProt P48764).
T1 construct: host or cells: PS120 fibroblasts
T1 sequence (P48764 26-834): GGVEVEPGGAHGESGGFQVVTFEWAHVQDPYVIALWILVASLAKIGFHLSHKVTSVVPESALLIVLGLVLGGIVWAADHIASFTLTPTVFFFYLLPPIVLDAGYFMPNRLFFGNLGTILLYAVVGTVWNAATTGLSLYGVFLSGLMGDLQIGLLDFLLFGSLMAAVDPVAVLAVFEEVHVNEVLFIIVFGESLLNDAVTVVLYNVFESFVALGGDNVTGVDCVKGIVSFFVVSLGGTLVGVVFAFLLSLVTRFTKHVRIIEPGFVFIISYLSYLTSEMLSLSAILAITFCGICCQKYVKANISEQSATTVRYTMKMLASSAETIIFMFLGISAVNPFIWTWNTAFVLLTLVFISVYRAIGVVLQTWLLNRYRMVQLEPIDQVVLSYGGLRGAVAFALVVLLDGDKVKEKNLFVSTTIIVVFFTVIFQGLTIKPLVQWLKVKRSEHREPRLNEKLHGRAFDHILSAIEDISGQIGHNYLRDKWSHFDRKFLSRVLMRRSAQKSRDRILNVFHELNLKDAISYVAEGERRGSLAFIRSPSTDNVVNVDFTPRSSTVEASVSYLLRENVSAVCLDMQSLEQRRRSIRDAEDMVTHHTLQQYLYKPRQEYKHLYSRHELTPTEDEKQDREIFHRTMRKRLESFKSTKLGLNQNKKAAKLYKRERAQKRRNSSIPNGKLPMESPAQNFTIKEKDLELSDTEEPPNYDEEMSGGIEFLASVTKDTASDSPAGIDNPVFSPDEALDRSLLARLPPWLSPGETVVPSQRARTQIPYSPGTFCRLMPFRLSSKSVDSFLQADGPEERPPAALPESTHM
T1 sequence (Q99653 2-195 partner limits assumed): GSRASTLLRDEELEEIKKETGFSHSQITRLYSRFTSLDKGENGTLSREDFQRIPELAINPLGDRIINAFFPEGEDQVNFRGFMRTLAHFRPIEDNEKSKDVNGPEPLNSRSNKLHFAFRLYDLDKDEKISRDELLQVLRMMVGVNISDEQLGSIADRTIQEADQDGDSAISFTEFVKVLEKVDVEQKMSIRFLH
Kind of assay: Cell-based assay of NHE-3 activity (persistent inhibition), human. Conditions: human Persistence assay; for IC50: 60 min incubation, washout, recovery initiated 10 min after washout. The method, then:
The ability of compounds to inhibit human and rat NHE-3-mediated Na^+-dependent H^+ antiport after application and washout was measured using a modification of the pH sensitive dye method described above. PS120 fibroblasts stably expressing human NHE3 and NHERF2 were obtained from Mark Donowitz (Baltimore, Md.). Opossum kidney (OK) cells were obtained from the ATCC and propagated per their instructions. The rat NHE-3 gene was introduced into OK cells via electroporation, and cells were seeded into 96 well plates and grown overnight. Medium was aspirated from the wells, cells were washed once with NaCl-HEPES buffer (100 mM NaCl, 50 mM HEPES, 10 mM glucose, 5 mM KCl, 2 mM CaCl2, 1 mM MgCl2, pH 7.4), then overlayed with NaCl-HEPES buffer containing 0-30 μM test compound. After a 60 min incubation at room temperature, the test drug containing buffer was aspirated from the cells. Following aspiration, cells were washed once with NaCl-HEPES buffer without drug, then incubated for 30 min at 37° C. with NH4Cl-HEPES buffer (20 mM NH4Cl, 80 mM NaCl, 50 mM HEPES, 5 mM KCl, 2 mM CaCl2, 1 mM MgCl2, pH 7.4) containing 5 μM BCECF-AM. Cells were washed once with Ammonium free, Na^+-free HEPES (100 mM choline, 50 mM HEPES, 10 mM glucose, 5 mM KCl, 2 mM CaCl2. 1 mM MgCl2. pH 7.4) and incubated in the same buffer for 10 minutes at room temperature to lower intracellular pH. NHE-3-mediated recovery of neutral intracellular pH was initiated (10 min after compound washout) by addition of Na-HEPES buffer. […] Changes in intracellular pH were monitored using a FLIPR Tetra® (Molecular Devices, Sunnyvale, Calif.) by excitation at λex 439 to 505 nm, and measuring BCECF fluorescence at λem 538 nm. The initial rate of the fluorescence ratio change was used as a measure of NHE-mediated Na^+/H^+ activity, and reported as the change in fluorescence ratio per minute.

For another assay, the target named is T2, rat NHE-3 (Rattus norvegicus, UniProt P26433).
T2 construct: expressed in transfected cells; host or cells: Opossum kidney (OK) cells (ATCC), electroporated
Briefly: Cell-based assay of NHE-3 activity (Pharmacological Test Example 1). Conditions: OK cells expressing rat NHE-3; 0-30 uM test compound, 5 uM EIPA; read-out: rat NHE-3 Average pIC50 (converted). In outline:
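OK cells electroporated with rat NHE-3, loaded with 5 uM BCECF-AM in NH4Cl-HEPES (pH 7.4) for 30 min at room temperature, then acid-loaded 10 min in Na+-free choline buffer. Na+-dependent H+ antiport read as initial rate of pH-dye change; pIC50 from 3-6 replicate averages.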

T2 sequence (P26433 29-831): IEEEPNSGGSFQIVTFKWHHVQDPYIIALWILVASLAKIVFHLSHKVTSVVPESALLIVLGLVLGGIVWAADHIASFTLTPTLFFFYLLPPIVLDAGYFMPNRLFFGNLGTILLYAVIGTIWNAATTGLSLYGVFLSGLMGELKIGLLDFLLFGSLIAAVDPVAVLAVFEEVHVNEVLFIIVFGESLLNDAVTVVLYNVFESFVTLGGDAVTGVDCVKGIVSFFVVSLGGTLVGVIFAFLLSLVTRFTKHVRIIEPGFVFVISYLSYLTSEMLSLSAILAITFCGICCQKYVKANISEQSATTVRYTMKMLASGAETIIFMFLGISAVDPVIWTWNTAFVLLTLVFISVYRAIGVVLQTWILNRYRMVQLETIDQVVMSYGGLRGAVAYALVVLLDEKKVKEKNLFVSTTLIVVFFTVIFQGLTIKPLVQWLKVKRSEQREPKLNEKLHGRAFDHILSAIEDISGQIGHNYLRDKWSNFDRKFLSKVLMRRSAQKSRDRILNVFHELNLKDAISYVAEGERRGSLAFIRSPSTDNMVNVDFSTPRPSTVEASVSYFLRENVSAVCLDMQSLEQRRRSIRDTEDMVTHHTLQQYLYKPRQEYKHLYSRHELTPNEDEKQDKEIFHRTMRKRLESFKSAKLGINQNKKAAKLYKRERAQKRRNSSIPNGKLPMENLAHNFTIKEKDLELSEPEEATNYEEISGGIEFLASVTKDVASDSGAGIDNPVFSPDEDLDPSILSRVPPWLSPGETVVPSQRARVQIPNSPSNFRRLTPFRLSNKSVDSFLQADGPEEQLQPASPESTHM

For `CN1Cc2c(Cl)cc(Cl)cc2[C@H](c2cccc(S(=O)(=O)NCCOCCOCCNC(=O)Nc3ccc(NC(=O)NCCOCCOCCNS(=O)(=O)c4cccc([C@@H]5CN(C)Cc6c(Cl)cc(Cl)cc65)c4)cc3)c2)C1` (single isomer, unassigned) [Example 203, (S or R)—N,N′-(2,2′-(2,2′-(2,2′-(1,4-phenylenebis(azanediyl))bis(oxomethylene)bis(azanediyl)bis(ethane-2,1-diyl))bis(oxy)bis(ethane-2,1-diyl))bis(oxy)bis(ethane-2,1-diyl))bis(3-((S or R)-6,8-dichloro-2-methyl-1,2,3,4-tetrahydroisoquinolin-4-yl)benzenesulfonamide) bis-hydrochloride salt], in the assay on fecal water content, the “% Fecal water (% of control)” value is 130% of control and the “% Fecal water” value was determined as 61%. On human NHE3, the “% inhibition” value is given as “C (>70%)” and the IC50 was less than 100 nM. In addition, the IC50 on rat NHE-3 is less than 100 nM.
`CN1Cc2c(Cl)cc(Cl)cc2[C@H](c2cccc(S(=O)(=O)NCCOCCOCCNC(=O)NCCCCNC(=O)NCCOCCOCCNS(=O)(=O)c3cccc([C@@H]4CN(C)Cc5c(Cl)cc(Cl)cc54)c3)c2)C1` (single isomer, unassigned) [Example 202, (S or R)—N,N′-(10,17-dioxo-3,6,21,24-tetraoxa-9,11,16,18-tetraazahexacosane-1,26-diyl)bis(3-((S)-6,8-dichloro-2-methyl-1,2,3,4-tetrahydroisoquinolin-4-yl)benzenesulfonamide) bis-hydrochloride salt]: in the assay on fecal water content, the “% Fecal water (% of control)” value is 134% of control and the “% Fecal water” value stood at 63%. On human NHE3, the “% inhibition” value was “C (>70%)” and the IC50 was less than 100 nM. In addition, the IC50 on rat NHE-3 is less than 100 nM.
